# Read-outs that look alike come from different tables or passages of the source.
# Columns and labels:
# MDA-MB231 [1] = assay: Cell cycle analysis (propidium iodide, flow cytometry); type: cell-based, human; details: aphidicolin-arrested cells
# Protocol: (§1) Cell cycle analysis—Cells in log phase at the same confluency used for uptake experiments or growth inhibited cells by aphidicolin treatment were harvested using trypsin and washed twice with cold PBS. The cells were suspended as 1×10^6/ml density in PBS and fixed with 70% ethanol at −20° C. The DNA content of the cells was stained with 1 mL of staining buffer containing propidium iodide (5 μg/ml), RNAse A (1 mg/ml), glucose (1 mg/ml) in PBS. The stained cells were filtered through 70 μm nylon strainer and then analyzed for DNA content on FASCan flow-cytometer (Becton Dickinson) using Flo-Jo software.
# (§2) Cell cycle vs. MTHF uptake. Biosynthesis of DNA and its precursor bases increases during S-phase of the cell cycle. […] Unsynchronized cells, as used for labeling, were alcohol-fixed and the DNA stained with propidium iodide (PI). DNA content can be used as a proxy for determining cell cycle stage. The DNA content was then analyzed by FACSCAN flow cytometer and data were processed by using Facscaliber software. […] Alternatively, when the cells were treated with aphidicolin, an inhibitor of DNA polymerase-α, the proliferation index is reduced up to 4-fold. […] In another experiment, we treated cells with a chemotherapeutic agent (methotrexate) for 24 h and then incubated with ^14C-MTHF for 1 h and observed a 90-95% decline in uptake relative to cells not treated with methotrexate.
# HT-29 [2] = assay: as above; type: cell-based, human; details: aphidicolin-arrested cells
# Protocol: as §1, §2
# FHC [3] = assay: as above; type: cell-based, human; details: aphidicolin-arrested cells
# Protocol: as §1, §2
# MCF-7 [4] = assay: as above; type: cell-based, human; details: aphidicolin-arrested cells
# Protocol: as §1, §2
# MCF-10A [5] = assay: as above; type: cell-based, human; details: aphidicolin-arrested cells
# Protocol: as §1, §2
# HMEC [6] = assay: as above; type: cell-based, human; details: aphidicolin-arrested cells
# Protocol: as §1, §2
# hTERT-HME1 [7] = assay: as above; type: cell-based, human; details: aphidicolin-arrested cells
# Protocol: as §1, §2
# cells [8] = assay: Cell cycle analysis, aphidicolin-treated cells; type: cell-based; details: cells treated with aphidicolin
# Protocol: as §1, §2
# MCF-10A [9] = system: MCF-10A
# MDA-MB231 [10] = system: MDA-MB231
# cancerous cell lines [11] = system: cancerous cell lines
# HMEC [12] = system: HMEC
# FHC [13] = system: FHC
# [14] = Protocol: Stability of MTHF in culture medium—Folate-free RPMI 1640 (Invitrogen), fortified with 10% Fetal bovine serum (FBS, Sigma, qualified) (1 mL) in an eppendorf tube (1.5 mL) was spiked with MTHF (10 nM-100 μM) containing ˜0.05 μCi (˜1×10^5 DPM) of ^14C-MTHF as a radiotracer, and incubated under normal culture conditions (see below) for 0, 5, 30, 60, and 120 min. […] The mixture was incubated at 30° C. for 15 min and then filtered through 10K MWCO filter to remove protein. A 100 μl filtrate was analyzed by HPLC to determine the amount of dTMP formed from MTHF. A zorbax column (4.6 mm×15 cm) was eluted with a gradient of 2% to 5% methanol in 100 mM potassium phosphate, pH 6 over 2 min. The isocratic elution at this composition was conducted for 3 min and then changed linearly to 50% methanol in next 5 min. The system was held at this composition for next 5 min, and then increased up to 95% methanol to clean the column. Under these conditions, dUMP was eluted at 3.2 min, dTMP eluted at 5.8 min and MTHF/DHF eluted at 16 min. Identification and quantitation of dTMP was accomplished by comparing the retention time and area under peak of the standard solutions of dTMP.
# Stability of MTHF in culture medium—The stability of MTHF might limit its pharmaceutical use. […] The inventors therefore measured the stability of MTHF in culture medium. Concentrations of MTHF ranging from 10 nM to 100 μM, containing a fixed amount of radiotracer (C-14) were incubated in culture medium, under the conditions used for cell incorporation experiments. MTHF remaining in the medium at different time points was measured by quantitatively converting dUMP +^14C-MTHF to ^14C-dTMP by the ecTSase-catalyzed reaction. The amount of ^14C-dTMP formed was then analyzed by HPLC connected with radioactive flow detector (FIG. 2). Data were fitted to a single exponential decay. The analytical assay in which ^14C-MTHF is quantitatively converted to ^14C-dTMP was developed, tested, and used in many of our kinetic isotope effect measurements while studying TSase.
# [15] = system: MIAPaCa, PANC1, H292, A549, SQ20B, Cal 27 and Fadu; assay: Uptake and retention in cancer cell lines (Example 3); type: cell-based
# Protocol: Additional studies were performed as described above using the following cell lines:
# Pancreatic cancer - MIAPaCa and PANC1
# Head and Neck cancer—SQ20B, Cal 27 and Fadu
# hTERT-HME1 [16] = system: hTERT-HME1
# MCF-7 [17] = system: MCF-7
# HT-29 [18] = system: HT-29
# MIAPaCa tumor = assay: Animal studies with ^14C-MTHF, distribution of radioactivity; type: in vivo; details: nude mice with MIAPaCa tumor; after one hour
# normal cells = assay: Washout of label from cells / retention; type: cell-based, human
# Protocol: (§3) Washout of label from cells—After labeling cells grown in four plates as described before, one culture plate was processed and total incorporation was measure by liquid scintillation counter (LSC). This uptake was regarded as 100%. From the remaining three culture plates, medium was removed, cells were washed twice with cold PBS and then normal growth medium (5 mL) was added at 37° for 30 min. The radiotracer released in the medium after 30 min was counted by LSC in triplicate, and cells were replenished with fresh 5 mL medium for next 30 min washing. The release of radiotracer was followed up to 120 min. Measurement of cell growth rate-The cells were seeded at a density of 4×10^4 cells/cm^2 in each of four 6-cm (20 cm^2) plates containing 5 mL medium and placed in incubator maintained at the conditions described above. Once the cells were in log-phase (48 h post plating), two plates were processed to count the total cells. The average number of cells from these plates was regarded as pl. After next 24 h, the remaining two plates were processed, and the total cells were counted again (p2). The doubling time was then calculated by using formula
# (§4) To examine the release of radioactivity from these cells, the ^14C-MTHF-loaded cells (after 2 hours uptake) were placed in fresh complete medium containing an excess of unlabeled folate at 37° C. The medium was replaced after every 30 min and the radiotracer released in the medium was measured by LSC. […] In case of cancerous cell lines, the release of the radiotracer was not more than 20%. After 30 min, the release of the radioactivity in the medium was slow and reached to the background value after two successive washings. After washing, the label retained in each cell line was determined and plotted in FIG. 6.
# cancerous cell lines [19] = assay: Washout of label from cells / retention; type: cell-based, human
# Protocol: as §3, §4
# cells [20] = assay: ^14C-MTHF uptake after methotrexate treatment; type: cell-based; details: methotrexate 24 h, then ^14C-MTHF 1 h
# [21] = normal growing cells, 20 μM MTHF with ^14C tracer
# [22] = first 30 min incubation in fresh medium after 2 hours uptake
compound,measurement,setting,value
C[C@@]1(CO)[C@H](O)CC[C@@]2(C)[C@H]1CC[C@H]1C[C@@H]3C[C@@]12CC[C@]3(O)CO [aphidicolin],Proliferation index (S + G2M),MDA-MB231 [1],6%
same,Proliferation index (S + G2M),HT-29 [2],6%
same,Proliferation index (S + G2M),FHC [3],3%
same,Proliferation index (S + G2M),MCF-7 [4],5%
same,Proliferation index (S + G2M),MCF-10A [5],3%
same,Proliferation index (S + G2M),HMEC [6],4%
same,Proliferation index (S + G2M),hTERT-HME1 [7],6%
same,reduction of proliferation index,cells [8],up to 4 fold
"(R)—N^5,N^10-methylene-5,6,7,8-tetrahydrofolate [MTHF]",MTHF uptake,MCF-10A [9]; aphidicolin-arrested cells,2.34 ×10^−3/10^6 cells
same,MTHF uptake,MCF-10A [9]; [21],7.79 ×10^−3/10^6 cells
same,MTHF uptake,MDA-MB231 [10]; aphidicolin-arrested cells,3.45 ×10^−3/10^6 cells
same,MTHF uptake,MDA-MB231 [10]; [21],81.3 ×10^−3/10^6 cells
same,"label uptake, cancerous versus non-cancerous control cell lines","cancerous cell lines [11]; HEMC-hTERT, MCF7 and MDA-MB231 versus HMEC, MCF10A, 20 μM MTHF",more than 3 fold
same,time at which uptake of label reached a maximum level,"cancerous cell lines [11]; cancerous cell lines, steady state",60 min
same,MTHF uptake,HMEC [12]; aphidicolin-arrested cells,1.23 ×10^−3/10^6 cells
same,MTHF uptake,HMEC [12]; [21],5.98 ×10^−3/10^6 cells
same,uptake in FHC cells (FIG. 4),FHC [13]; 20 μM MTHF,not higher than background
same,MTHF uptake,FHC [13]; aphidicolin-arrested cells,0.54 ×10^−3/10^6 cells
same,MTHF uptake,FHC [13]; [21],0.94 ×10^−3/10^6 cells
same,rate of decomposition kdec,[14]; 10 nM MTHF in culture medium,0.0727 min⁻¹
same,half-life,[14]; 20 μM MTHF in culture medium,78 min
same,rate of decomposition kdec,[14]; 100 μM MTHF in culture medium,0.00194 min⁻¹
same,stability of MTHF (time),[14]; 100 μM MTHF in culture medium,up to 330 min
same,uptake and retention of the radioactivity,"[15]; pancreatic, lung, head and neck cancer cell lines",good uptake and retention
same,MTHF uptake,hTERT-HME1 [16]; aphidicolin-arrested cells,5.74 ×10^−3/10^6 cells
same,MTHF uptake,hTERT-HME1 [16]; [21],67.3 ×10^−3/10^6 cells
same,MTHF uptake,MCF-7 [17]; aphidicolin-arrested cells,4.92 ×10^−3/10^6 cells
same,MTHF uptake,MCF-7 [17]; [21],80.0 ×10^−3/10^6 cells
same,MTHF uptake,HT-29 [18]; aphidicolin-arrested cells,3.82 ×10^−3/10^6 cells
same,"uptake, HT29 versus normal FHC cells","HT-29 [18]; colon cancer HT29 versus FHC, 20 μM MTHF",at least 30 times
same,MTHF uptake,HT-29 [18]; [21],48.9 ×10^−3/10^6 cells
"Nc1nc2c(c(=O)[nH]1)N1[14CH2]N(c3ccc(C(=O)N[C@@H](CCC(=O)O)C(=O)O)cc3)C[C@H]1CN2 [^14C-MTHF, [11-^14C]—(R)—N^5,N^10-methylene-5,6,7,8-tetrahydrofolate]",distribution of radioactivity/cell,MIAPaCa tumor,most of the radioactivity/cell was in the tumor and kidney
same,release of radiotracer,normal cells; [22],> 50%
same,label retained after washing (FIG. 6),"normal cells; non-cancer counterparts, successive 30 min washes, 2 h","retained a much lower, near-background amount of label"
same,label retained after washing (FIG. 6),"cancerous cell lines [19]; MDA-MB231, MCF7, hTERT, HT29, successive 30 min washes, 2 h",retained the highest amount of tracer
same,release of radiotracer,cancerous cell lines [19]; [22],not more than 20%
"CN(Cc1cnc2nc(N)nc(N)c2n1)c1ccc(C(=O)N[C@@H](CCC(=O)O)C(=O)O)cc1 [methotrexate, reference compound]",effect of methotrexate on tracer uptake,[15]; small dose of MTX,uptake enhancement
same,decline in ^14C-MTHF uptake relative to untreated cells,cells [20],90-95%
